Measured values published in patent publication US7358359B2, “Antibacterial agents” (University of Washington, priority 2003, dated 2008).
≈ marks a conversion by molar mass, not a printed value. Read-outs that look alike come from different tables or passages of the source.

Experiments:
[1] = test system: Enterobacter aerogenes; experiment: MIC vs enteric organisms: Enterobacter aerogenes; assay type: cell-based; conditions: Klebsiella aerogenes; E. aer.; MIC key class
Protocol: (§1) Bacterial isolates were cultivated from −70° C. frozen stocks by two consecutive overnight passages at 35° C. in ambient air on 5% blood agar (Remel, Lenexa, Kans.). Clinical isolates tested were from a collection composed of isolates collected during clinical trials and recent clinical isolates obtained from various geographically diverse hospitals in the US. Quality control and primary panel strains were from the American Type Culture Collection (ATCC; Rockville, Md.), with the exception of P. aeruginosa PAO200, a strain with a deletion of the mexABoprM genes that was received from Dr. H. Schweizer.
(§2) Minimum Inhibitory Concentrations (MICs) were determined by the broth microdilution method in accordance with the National Committee for Clinical Laboratory Standards (NCCLS) guidelines. In brief, organism suspensions were are adjusted to a 0.5 McFarland standard to yield a final inoculum between 3×10^5 and 7×10^5 colony-forming units (CFU)/mL. Drug dilutions and inocula were made in sterile, cation adjusted Mueller-Hinton Broth (Remel). An inoculum volume of 100 μl was added to wells containing 100 μl of broth with 2-fold serial dilutions of drug. All inoculated microdilution trays were incubated in ambient air at 35° C. for 18-24 hours. Following incubation, the lowest concentration of the drug that prevented visible growth was recorded as the MIC.

[2] = test system: Serratia marcescens; experiment: MIC vs enteric organisms: Serratia marcescens; assay type: cell-based; conditions: S. marc., MIC key class
Protocol: as §1, §2

[3] = test system: Pseudomonas aeruginosa cystic fibrosis isolate 2196; experiment: MIC vs cystic fibrosis isolate of P. aeruginosa 2196 (resistant to ciprofloxacin); assay type: cell-based; conditions: strain 2196, Cipro R, LpxC inhibitors, MIC key class
Protocol: as §1, §2

[4] = test system: Proteus mirabilis; experiment: MIC vs enteric organisms: Proteus mirabilis; assay type: cell-based; conditions: P. mir., MIC key class
Protocol: as §1, §2

[5] = test system: Alcaligenes xylosoxidans; experiment: MIC vs non-fermenting organisms: Alcaligenes xylosoxidans; assay type: cell-based; conditions: Achromobacter xylosoxidans; Alcal. xyl; MIC key class
Protocol: as §1, §2

[6] = test system: Pseudomonas aeruginosa cystic fibrosis isolate 3317; experiment: MIC vs cystic fibrosis isolate of P. aeruginosa 3317 (resistant to aztreonam); assay type: cell-based; conditions: strain 3317, Aztr. R, LpxC inhibitors, MIC key class
Protocol: as §1, §2

[7] = test system: Burkholderia cepacia; experiment: MIC vs non-fermenting organisms: Burkholderia cepacia; assay type: cell-based; conditions: Burkholderia cepacia, B. cepacia; MIC key class; read-out: MIC
Protocol: as §1, §2

[8] = test system: Klebsiella pneumoniae; experiment: MIC vs enteric organisms: Klebsiella pneumoniae; assay type: cell-based; conditions: K. pneu., MIC key class
Protocol: as §1, §2

[9] = biological target: T1, P. aeruginosa LpxC (Pseudomonas aeruginosa, UniProt P47205); experiment: P. aeruginosa LpxC Inhibition Assay; assay type: biochemical
T1 sequence (P47205 1-303): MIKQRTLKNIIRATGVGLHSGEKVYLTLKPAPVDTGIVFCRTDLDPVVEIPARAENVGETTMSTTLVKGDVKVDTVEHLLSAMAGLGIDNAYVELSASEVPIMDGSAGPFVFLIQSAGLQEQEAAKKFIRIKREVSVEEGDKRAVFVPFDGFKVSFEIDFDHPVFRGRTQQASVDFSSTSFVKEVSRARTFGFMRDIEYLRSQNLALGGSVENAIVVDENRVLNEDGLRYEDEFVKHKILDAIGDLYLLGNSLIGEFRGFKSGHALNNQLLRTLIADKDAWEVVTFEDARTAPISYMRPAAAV
Protocol: The assay followed the general method of Hyland et al (Journal of Bacteriology 1997 179, 2029-2037: Cloning, expression and purification of UDP-3-O-acyl-GlcNAc deacetylase from Pseudomonas aeruginosa: a metalloamidase of the lipid A biosynthesis pathway) and the radiolabeling procedure is according to Kline et al. supra. Briefly, samples were incubated with 2 nM P. aeruginosa LpxC and 150 nM [3H-Ac]-UDP-3-OR-3-hydroxydecanoyl)-GlcNAc in a total volume of 50 uL for 90 min at room temperature. Reactions were carried out in 96-well polypropylene plates in 50 mM sodium phosphate buffer, pH 7.5, containing 1 mg/mL BSA. Reactions were stopped by the addition of 180 uL of a 3% suspension of activated charcoal powder in 100 mM sodium acetate, pH 7.5. Supernatants were clarified by centrifugation. A portion of the clarified supernatant, containing the enzymatically released [3H]-acetate, was transferred to opaque white 96-well plates containing scintillation fluid. The radioactivity was measured in a Perkin-Elmer/Wallac Trilux Microbeta counter.

[10] = test system: Enterobacter cloacae; experiment: MIC vs enteric organisms: Enterobacter cloacae; assay type: cell-based; conditions: E. clo., MIC key class
Protocol: as §1, §2

[11] = test system: Klebsiella oxytoca; experiment: MIC vs enteric organisms: Klebsiella oxytoca; assay type: cell-based; conditions: K. oxy., MIC key class
Protocol: as §1, §2

[12] = test system: non-CF clinical isolates of P. aeruginosa; experiment: MIC vs non-CF clinical isolates of P. aeruginosa; assay type: cell-based; conditions: Pseudomonas aeruginosa, MIC key class
Protocol: as §1, with “Schweizer. […] Strain Z61 (ATCC 35151) is also hypersusceptible to antibacterials. It is thought that the hypersusceptibility of this strain is the result of increased permeability of its outer membrane (Angus B L et al, Antimicrobial Agents and Chemotherapy 1982 21,299-309: Outer membrane permeability in Pseudomonas aeruginosa: Comparison of a wild-type with an antibacterial-supersusceptible mutant).” for “Schweizer.”
as §2, with “MIC. Performance of the assay was monitored by the use of laboratory quality-control strains against tobramycin, that has a defined MIC spectrum, in accordance with NCCLS guidelines.” for “MIC.”

[13] = test system: Pseudomonas aeruginosa cystic fibrosis isolate 3236; experiment: MIC vs cystic fibrosis isolate of P. aeruginosa 3236 (sensitive to most antibacterials); assay type: cell-based; conditions: strain 3236, Sensitive, LpxC inhibitors, MIC key class
Protocol: as §1, §2

[14] = test system: Escherichia coli; experiment: MIC vs enteric organisms: Escherichia coli clinical isolates; assay type: cell-based; conditions: Escherichia coli, MIC key class, read-out: MIC
Protocol: as §1, §2

[15] = test system: Acinetobacter calcoaceticus; experiment: MIC vs non-fermenting organisms: Acinetobacter calcoaceticus; assay type: cell-based; conditions: Acinet. calc., MIC key class
Protocol: as §1, §2

| SMILES | MIC [1] [µg/mL] | MIC [2] [µg/mL] | MIC [3] [µg/mL] | MIC [4] [µg/mL] | MIC [5] [µg/mL] | MIC [6] [µg/mL] | MIC [7] [µg/mL] | MIC [8] [µg/mL] | IC50 [9] [nM] | MIC [10] [µg/mL] | MIC [11] [µg/mL] | MIC ([12]; P. aer 27853) [µg/mL] | MIC ([12]; P. aer psa-6b) [µg/mL] | MIC ([12]; PAO1, P. aer. PAO1) [µg/mL] | MIC [13] [µg/mL] | MIC ([14]; E. coli 1619) [µg/mL] | MIC ([14]; E. coli 2788) [µg/mL] | MIC [15] [µg/mL] | IC50 ([9]; 2 nM P. aeruginosa LpxC, 90 min, room temperature, read-out: IC50 (nM), Enzyme inhibitory activity) [nM] |
| --- | --- | --- | --- | --- | --- | --- | --- | --- | --- | --- | --- | --- | --- | --- | --- | --- | --- | --- | --- |
| CCc1ccc(-c2ccc(C(=O)N[C@H](C(=O)NO)[C@@H](C)N)cc2)cc1 [Example 779, N-{(1S,2R)-2-amino-1-[(hydroxyamino)carbonyl]propyl)-4′-ethyl-1,1′-biphenyl-4-carboxamide] | > 50 | < 6.25 | < 6.25 | 6.25 to 50 (≈ 18.3 to 146 µM) | < 6.25 | < 6.25 | < 6.25 | 6.25 to 50 (≈ 18.3 to 146 µM) | < 100 | < 6.25 | 6.25 to 50 (≈ 18.3 to 146 µM) | < 6.25 | < 6.25 | < 6.25 | < 6.25 | < 6.25 | < 6.25 | > 50 |  |
| C[C@@H](O)[C@H](NC(=O)c1ccc(C#CC#Cc2ccc(NC(=O)CNc3ccccn3)cc2)cc1)C(=O)NO [Example 801, N-{(1S,2R)-2-hydroxy-1-[(hydroxyamino)carbonyl]propyl}-4-[4-(4-{[(pyridin-2-ylamino)acetyl]amino}phenyl)buta-1,3-diynyl]benzamide] | 6.25 to 50 (≈ 12.2 to 97.7 µM) | < 6.25 | < 6.25 | < 6.25 | > 50 | < 6.25 | 6.25 to 50 (≈ 12.2 to 97.7 µM) | < 6.25 |  | < 6.25 | < 6.25 | < 6.25 | < 6.25 | < 6.25 | < 6.25 | < 6.25 | < 6.25 | 6.25 to 50 (≈ 12.2 to 97.7 µM) | < 100 |
